MIC data for 6 compounds are collected here from DBAASP.

What all share (test): ≥ marks a high value that may be exact or a test limit, other limits are often not marked, values filed in µg/mL are converted to µM
The subject of assay [1] is Staphylococcus aureus ATCC 25923.
Assay [2] deals with Nocardia asteroides.
Assay [3] has as its system Enterococcus faecalis 981.
Assay [4] concerns Psychrobacter faecalis X29.
Assay [5] relates to Candida glabrata 090902.
Assay [6] deals with Micrococcus luteus ATCC 9341.
Assay [7] concerns Bacillus megaterium Bm11.
Assay [8] concerns Enterococcus faecalis ATCC 29212.
The test system of assay [9] is Salmonella typhimurium SL1344.
The test system of assay [10] is Pseudomonas aeruginosa ATCC 27853.
For assay [11], the system named is Acinetobacter calcoaceticus Ac11.
Assay [12] concerns Escherichia coli ATCC 25922.
Assay [13] has as its system Staphylococcus aureus ATCC 29213.
For assay [14], the system named is Escherichia coli D21.
Assay [15] concerns Bacillus subtilis ATCC 6051.
Assay [16] has as its system Salmonella enterica subsp. enterica serovar Typhimurium LT2.
The test system of assay [17] is Staphylococcus aureus ATCC 33591.
For assay [18], the system named is Escherichia coli ATCC BAA-3051.
Assay [19] deals with Trichosporon beigelii KCTC 7251.
In assay [20] the test system is Bacillus megaterium KCTC 1096.
Assay [21] has as its system Fusarium oxysporum KCTC 6084.
The subject of assay [22] is Candida albicans KCTC 7121.
The test system of assay [23] is Pseudomonas aeruginosa KCTC 1637.
Assay [24] concerns Bacillus subtilis KCTC 1918.
Assay [25] has as its system Proteus vulgaris.
Assay [26] relates to Escherichia coli KCTC 1682.
Assay [27] relates to Aspergillus flavus KCTC 7375.
In assay [28] the test system is Staphylococcus aureus KCTC 1621.
Assay [29] concerns Staphylococcus aureus.
Assay [30] has as its system Escherichia coli W160-37.
Assay [31] relates to Staphylococcus aureus ATCC 25929.
The subject of assay [32] is Staphylococcus pseudintermedius.
Assay [33] concerns Bacillus subtilis CMCC 63501.
For assay [34], the system named is Salmonella enterica subsp. enterica serovar Typhimurium C77-31.
The test system of assay [35] is Candida albicans ATCC 10231.
The test system of assay [36] is Aeromonas veronii biovar sobria BJCP-5.
Assay [37] deals with Staphylococcus epidermidis ATCC 12228.
Assay [38] deals with Salmonella enterica subsp. enterica serovar Enteritidis.
Assay [39] has as its system Salmonella enterica subsp. enterica serovar Pullorum C79-13.

Converted amounts (≈) assume the structure as drawn. “And” between values parts separate entries of the source, which are not always exact repeats. Identical values can stand only once.

For `CC[C@H](C)[C@H](NC(=O)[C@H](CC(C)C)NC(=O)CNC(=O)[C@@H](NC(=O)[C@@H](NC(=O)[C@@H](N)Cc1ccccc1)[C@@H](C)CC)[C@@H](C)O)C(=O)N[C@@H](CO)C(=O)NCC(=O)N[C@@H](CC(C)C)C(=O)N[C@@H](CCSC)C(=O)N[C@@H](CCCCN)C(=O)N[C@@H](C)C(=O)N[C@@H](CC(C)C)C(N)=O` [FITGLISGLMKAL], the MIC – broadly, the smallest concentration in the dilution series that meets the test's criterion for growth inhibition – in assay [1] was 12.5 µM (≈ 17 µg/mL); in [2], 12.5 µM (≈ 17 µg/mL); in assay [3] it was 25 µM (≈ 34.1 µg/mL); in assay [4], at least 200 µM; in assay [5], at least 100 µM.

Turning to `CC[C@H](C)[C@H](N=C(O)[C@H](CC(C)C)N=C(O)[C@H](C)N=C(O)[C@H](Cc1ccccc1)N=C(O)[C@H](Cc1ccccc1)N=C(O)CN)C(=O)N1CCC[C@H]1C(O)=N[C@@H](CCCCN)C(O)=N[C@H](C(O)=N[C@H](C(O)=N[C@@H](CO)C(O)=N[C@@H](CO)C(=O)N1CCC[C@H]1C(O)=N[C@@H](CC(C)C)C(O)=N[C@@H](Cc1ccccc1)C(O)=N[C@@H](CCCCN)C(O)=N[C@H](C(O)=N[C@@H](CC(C)C)C(O)=N[C@@H](CC(C)C)C(O)=N[C@@H](CO)C(O)=N[C@@H](C)C(O)=N[C@H](C(O)=NCCN)C(C)C)[C@@H](C)O)[C@@H](C)CC)[C@@H](C)CC` [GFFALIPKIISSPLFKTLLSAV], the MIC in assay [6] is at least 100 µM; in assay [7], 6.2 µM (≈ 14.9 µg/mL); in assay [8], 3.3 µM (≈ 7.94 µg/mL); in assay [9], at least 52.9 µM; in assay [10], over 100 µM; in [11], at least 100 µM. Besides, the MIC in [12] was 13.2 µM (≈ 31.9 µg/mL); in assay [13], 3.3 µM (≈ 7.94 µg/mL); in assay [14], at least 100 µM; in assay [15], 20 µM (≈ 48.1 µg/mL); in [16], at least 100 µM; in [17], 3.3 µM (≈ 7.94 µg/mL). This compound displayed an MIC in [18] of 13.2 µM (≈ 31.9 µg/mL).

For `CC[C@H](C)[C@H](NC(=O)[C@H](CCCCN)NC(=O)[C@H](CCCCN)NC(=O)[C@H](Cc1ccccc1)NC(=O)[C@H](CC(C)C)NC(=O)[C@H](CCCCN)NC(=O)[C@H](Cc1c[nH]c2ccccc12)NC(=O)[C@@H](N)CCCCN)C(=O)N1CCC[C@H]1C(=O)N[C@@H](CCCCN)C(=O)N[C@@H](Cc1ccccc1)C(=O)N[C@@H](CC(C)C)C(=O)N[C@@H](Cc1cnc[nH]1)C(=O)N[C@@H](CC(C)C)C(=O)N[C@@H](C)C(=O)N[C@@H](CCCCN)C(N)=O` [KWKLFKKIPKFLHLAK], the MIC in [19] was at least 50 µM; in [20] it was 3.12 µM (≈ 6.33 µg/mL); in assay [21], at least 50 µM; in assay [22], at least 50 µM; in [23], 6.25 µM (≈ 12.7 µg/mL); in assay [24], 1.56 µM (≈ 3.16 µg/mL). Besides, the MIC was 1.56 µM (≈ 3.16 µg/mL) in [25], 4.42 µM (≈ 8.95 µg/mL) in assay [26], at least 50 µM in assay [27] and 3.12 µM (≈ 6.33 µg/mL) in [28].

Regarding `CC[C@H](C)[C@H](NC(=O)[C@H](Cc1c[nH]c2ccccc12)NC(=O)[C@H](CCCCN)NC(=O)[C@H](CO)NC(=O)[C@H](CC(C)C)NC(=O)[C@H](Cc1ccccc1)NC(=O)[C@H](CCCCN)NC(=O)[C@H](CC(C)C)NC(=O)[C@H](CC(C)C)NC(=O)[C@H](CCCCN)NC(=O)[C@@H]1CCCN1)C(=O)NCC(=O)O` [PKLLKFLSKWIG], the MIC in [29] is 14 µM (≈ 20 µg/mL); in assay [30], 24 µM (≈ 34.3 µg/mL).

In the case of `CC(C)C[C@H](NC(=O)CNC(=O)[C@H](C)NC(=O)[C@H](CC(C)C)NC(=O)[C@H](CC(C)C)NC(=O)[C@@H](NC(=O)[C@H](CCCCN)NC(=O)[C@H](CC(C)C)NC(=O)[C@H](CC(C)C)NC(=O)[C@H](C)NC(=O)[C@@H]1CCCN1C(=O)[C@H](CC(C)C)NC(=O)[C@H](C)NC(=O)[C@@H](NC(=O)CNC(=O)[C@H](CC(C)C)NC(=O)[C@@H](N)CCCN=C(N)N)[C@@H](C)O)[C@@H](C)O)C(=O)N[C@@H](CC(N)=O)C(=O)NCC(N)=O` [RLGTALPALLKTLLAGLNG], the MIC in assay [31] and in [12] was 17 µM (≈ 32.2 µg/mL) each time.

Turning to `CC[C@H](C)[C@H](NC(=O)[C@@H]1CCCN1C(=O)[C@@H](N)CO)C(=O)N[C@@H](Cc1cnc[nH]1)C(=O)N[C@@H](C)C(=O)N[C@H]1CSSC[C@@H]2NC(=O)[C@H](CO)NC(=O)[C@H](CCCCN)NC(=O)[C@H](CC(C)C)NC(=O)CNC(=O)[C@H](CO)NC(=O)CNC(=O)[C@@H]3CSSC[C@H](NC(=O)[C@H](C(C)C)NC(=O)CNC(=O)[C@H](CCCN=C(N)N)NC(=O)[C@H](CCC(N)=O)NC(=O)[C@H](Cc4ccc(O)cc4)NC(=O)[C@H](CCCN=C(N)N)NC1=O)C(=O)N[C@@H]([C@@H](C)CC)C(=O)N1CCC[C@H]1C(=O)NCC(=O)N1CCC[C@H]1C(=O)N[C@@H](CSSC[C@@H](C(=O)N[C@H](C(=O)N[C@@H](CCCN=C(N)N)C(=O)N[C@@H](CC(N)=O)C(=O)N[C@@H](CCCN=C(N)N)C(=O)N[C@@H](Cc1c[nH]c4ccccc14)C(=O)N[C@@H](C)C(=O)O)C(C)C)NC2=O)C(=O)N[C@@H](CCCN=C(N)N)C(=O)N[C@@H](Cc1c[nH]c2ccccc12)C(=O)N1CCC[C@H]1C(=O)N[C@@H](Cc1ccc(O)cc1)C(=O)N[C@@H](Cc1ccc(O)cc1)C(=O)N[C@@H](CCCN=C(N)N)C(=O)N[C@@H](C(C)C)C(=O)NCC(=O)N[C@@H](CO)C(=O)N3` [SPIHACRYQRGVCIPGPCRWPYYRVGSCGSGLKSCCVRNRWA], the MIC in assay [32] was at least 54 µM; in [8], 2 µM (≈ 9.48 µg/mL); in assay [1], 0.569 µM (≈ 2.7 µg/mL); in [13] it was 54 µM and > 27 µM; in assay [33], 8 µM (≈ 37.9 µg/mL); in [34] it was 2.23 µM (≈ 10.6 µg/mL). Besides, the MIC stood at 16 µM (≈ 75.8 µg/mL) in [35]; 0.5 µM (≈ 2.37 µg/mL) in [36]; 2.23 µM (≈ 10.6 µg/mL) in assay [37]; 4 µM (≈ 19 µg/mL) in assay [38]; 2.23 µM (≈ 10.6 µg/mL) in assay [39].
